Values belong to the molecule of their own block, whether it stands above or below them.
Tests used:
[1] = Tested for specific binding of radioligand [3H]U-46619 to thromboxane A2/prostaglandin H2 receptor in guinea pig washed platelets; set-up: species or system Cavia porcellus
[2] = Tested for specific binding of radioligand [3H]U-46619 to thromboxane A2 /prostaglandin H2 receptor in guinea pig washed platelets; set-up: species or system Cavia porcellus
[3] = tested on: Rattus norvegicus; assay: Tested for the effect at 30 mg/kg through peroral route on rat blood urea nitrogen, 48 hr after reperfusion; (p<0.05); format: functional; details: route oral
[4] = tested on: Rattus norvegicus; assay: Tested for the effect at 30 mg/kg through peroral route on rat blood urea nitrogen, 24 hr after reperfusion; (p<0.01); format: functional; details: route oral
[5] = tested on: Rattus norvegicus; assay: Tested for the effect at 30 mg/kg through peroral route on rat serum creatinine, 48 hr after reperfusion; format: functional, organism-based; set-up: dose 30 mg/kg
[6] = tested on: Rattus norvegicus; assay: Tested for the effect at 30 mg/kg through peroral route on rat serum creatinine, 24 hr after reperfusion; (p<0.05); format: functional, organism-based; set-up: dose 30 mg/kg
[7] = organism: Homo sapiens; assay: In vitro inhibition of U-46619 (3 uM) -induced human platelet aggregation; format: functional
[8] = organism: Cavia porcellus; assay: Tested for inhibition against thromboxane A2/prostaglandin H2 receptor in guinea pig washed platelets using radioligand [3H]U-46619 at 100 uM
[9] = tested on: Thromboxane-A synthase (Bos taurus); assay: Tested against TXA2 synthase in bovine platelet microsome at 10 uM
[10] = organism: Cavia porcellus; assay: Tested for inhibition against thromboxane A2/prostaglandin H2 receptor in guinea pig washed platelets using radioligand [3H]U-46619 at 1 uM

SMILES: O=C(O)c1ccc2c(c1)/C(=C/Cn1ccnc1)c1ccccc1CO2
Ki [1]: 600 nM

SMILES: O=C(O)c1ccc2c(c1)/C(=C\Cn1ccnc1)c1ccccc1CO2
Ki [1]: 4500 nM

SMILES: O=C(O)c1ccc2c(c1)/C(=N\Cc1cccnc1)c1ccccc1CO2
Ki [2]: 120 nM

IC50 [7]: 9600 nM
SMILES: O=C(O)c1ccc2c(c1)/C(=C\Cc1cccnc1)c1ccccc1CO2
Blood urea nitrogen [3]: 30.37 | Blood urea nitrogen [4]: 34.18 | Serum creatinine [5]: 1.16 | Serum creatinine [6]: 1.48 | Ki [1]: 180 nM

inhibition [8]: 14%
SMILES: C/C(=C\c1ccc(Cc2cccnc2)cc1)C(=O)O

SMILES: O=C(O)c1ccc2c(c1)C(SCc1ccccc1)c1ccccc1CO2 (racemic)
inhibition [9]: 19% | Ki [1]: 40 nM

SMILES: O=C(O)c1ccc2c(c1)C(SCc1cccnc1)c1ccccc1CO2 (racemic)
Ki [1]: 250 nM

inhibition [9]: -4% | inhibition [10]: 6%
SMILES: O=C(O)c1ccc2c(c1)C(NCc1ccccc1)c1ccccc1CO2 (racemic)

inhibition [10]: 12%
SMILES: O=C(O)c1ccc2c(c1)C(NCc1cccnc1)c1ccccc1CO2 (racemic)

SMILES: O=C(O)c1ccc2c(c1)C(SCc1cccnc1)c1ccccc1CO2 (single isomer, unassigned; (+))
Ki [1]: 8200 nM

SMILES: O=C(O)c1ccc2c(c1)C(SCc1cccnc1)c1ccccc1CO2 (stereo in doubt; (-)-3)
Ki [1]: 85 nM

IC50 [7]: 280000 nM
SMILES: O=C(O)CCCC/C=C(\c1ccccc1)c1cccnc1 [(E)-ISBOGREL]
Blood urea nitrogen [3]: 48.38 | Blood urea nitrogen [4]: 58.07 | Serum creatinine [5]: 2.02 | Serum creatinine [6]: 2.07 | Ki [2]: 2700 nM

From ChEMBL document CHEMBL1126704, “Dibenzoxepin derivatives: thromboxane A2 synthase inhibition and thromboxane A2 receptor antagonism combined in one molecule” (J Med Chem, 1993)
